Test results published in US10266544B2, “Aryl substituted aminomethyl spectinomycin analogs as antibacterial agents” (ST. JUDE CHILDREN'S RESEARCH HOSPITAL, INC., priority 2013, dated 2019).
Where a name gives a salt, the structure may show the parent alone. Read-outs that look alike come from different tables or passages of the source.

How the values were obtained:
Type in all cases: cell-based
[1] = tested on: Bacillus anthracis, Sterne 34F2; assay: microbe, parasite or virus in culture; settings: STERNE34F2, read-out: MIC B.a.
[2] = tested on: Staphylococcus aureus (ATCC 29213); assay: MIC determination, microbroth dilution; settings: ATCC29213; Staphylococcus aureus (ATCC 29213); read-out: MIC S.a.
[3] = tested on: MRSA, Staphylococcus aureus (NRS70); assay: MIC determination, microbroth dilution; settings: Staphylococcus aureus (NRS70); read-out: MIC MRSA
[4] = tested on: acinetobacter baumannii (ATCC 19606); assay: MIC determination, microbroth dilution; settings: ATCC19606
[5] = tested on: Burkholderia cepacia (ATCC 25416); assay: MIC determination, microbroth dilution; settings: Burkholderia cepacia
[6] = tested on: Klebsiella pneumoniae (ATCC 33495); assay: MIC determination, microbroth dilution; settings: ATCC33495
Bacillus anthracis = assay: microbe, parasite or virus in culture; settings: read-out: MIC B.a.
[7] = tested on: M. tuberculosis clinical isolates; assay: microbe, parasite or virus in culture; settings: Mycobacterium tuberculosis
Listeria monocytogenes = assay: MIC determination (Table 6)
Moraxella catarrhalis = assay: MIC determination (Table 6)
[8] = tested on: Bacillus subtilis (ATCC 23857); assay: MIC determination, microbroth dilution
[9] = tested on: Streptococcus pneumoniae (R6); assay: MIC determination, microbroth dilution; settings: Streptococcus pneumoniae (R6); read-out: MIC S. pn.
[10] = tested on: Streptococcus pyogenes (ATCC 700294); assay: MIC determination, microbroth dilution; settings: ATCC700294; Streptococcus pyogenes (ATCC 700294); read-out: MIC S. py.
[11] = tested on: Escherichia coli (ATCC 700926); assay: MIC determination, microbroth dilution
Description: MICs were determined using the microbroth dilution method according to Clinical Laboratory Standards Institute (CLSI; National, C. F. C. L. S., Methods for Dilution Antimicrobial Susceptibility Tests for Bacteria Grow aerobically-Seventh Edition: Approved Standard M7-A7, CLSI, Wayne, Pa., USA, 2008) and were read by visual inspection. Two fold serial dilutions of antibiotic in 100 μL of the appropriate broth media were first prepared in 96-well round bottom microtiter plates (Nalge Nunc International, Rochester, N.Y., USA). An equivalent volume (100 μL) of bacterial broth inocula containing approximately 10^5 bacterial cfu/mL was added to each well to give final concentrations of drug starting at 200 μg/mL and the plates were incubated aerobically at 37° C. M. tuberculosis microtiter plates were incubated for 7 days and all other strains were incubated overnight. After incubations, in all cases the MIC was recorded as the lowest concentration of drug that prevented bacterial growth.

E. coli K12 ΔtolC = assay: microbe, parasite or virus in culture; settings: Escherichia coli, read-out: MIC E.c. Δtolc
[12] = tested on: Pseudomonas aeruginosa (PA01); assay: MIC determination, microbroth dilution
[13] = tested on: Proteus mirabilis (ATCC 25933); assay: MIC determination, microbroth dilution; settings: ATCC25933
[14] = tested on: Proteus vulgaris (ATCC 33420); assay: MIC determination, microbroth dilution; settings: ATCC33420
[15] = tested on: Stenotrophomonas maltophilia (ATCC 13637); assay: MIC determination, microbroth dilution; settings: ATCC13637; Stenotrophomonas maltophilia (ATCC 13637); read-out: MIC S.m.
[16] = tested on: Haemophilus influenza (ATCC 49247); assay: microbe, parasite or virus in culture; settings: ATCC49247; Haemophilus influenza; 4 μg per disc; range of at least two experiments; read-out: Zone of inhibition H.i.
[17] = tested on: Legionella pneumophila (ATCC 33153); assay: microbe, parasite or virus in culture; settings: ATCC33153, 72 h, read-out: Zone of inhibition L.p.
[18] = tested on: Neisseria meningitides (ATCC 13077); assay: Disc diffusion assay; settings: ATCC13077, 4 μg per disc, read-out: Zone of inhibition N.m.
[19] = tested on: Neisseria gonorrhoeae (ATCC 49226); assay: Disc diffusion assay; settings: ATCC49226, 4 μg per disc, read-out: Zone of inhibition N.g.
[20] = tested on: Enterococcus faecalis (ATCC 33186); assay: MIC determination, microbroth dilution; settings: ATCC33186; Enterococcus faecalis (ATCC 33186); read-out: MIC E.f.
[21] = ATCC25416, read-out: MIC B.c., Burkholderia cepacia (ATCC 25416)
[22] = ATCC25416, read-out: MIC B.c., Burkholderia cepacia, Table 6
[23] = ATCC23857, Bacillus subtilis (ATCC 23857), read-out: MIC B.s.
[24] = ATCC700926, Escherichia coli (ATCC 700926), read-out: MIC E.c.

Structure (SMILES) | MIC [1] | MIC [2] | MIC [3] | MIC [4] | MIC [5, 21] | MIC [5, 22] | MIC [6] | MIC (Bacillus anthracis) | MIC ([7]; H37RV, read-out: MIC H37Rv) | MIC ([7]; read-out: MIC TN022) | MIC ([7]; read-out: MIC TN026) | MIC (Listeria monocytogenes) | MIC (Moraxella catarrhalis) | MIC [8, 23] | MIC [9] | MIC [10] | MIC (E. coli K12 ΔtolC) | MIC [12] | MIC [13] | MIC [14] | also measured
CN[C@@H]1[C@H](O)[C@H](NC)[C@H]2O[C@]3(O)[C@H](O[C@@H]2[C@H]1O)O[C@H](C)C[C@@]3(O)CNCCc1ccncc1 [compound 63, 3′-(R)-3′-[((2-(pyridin-4-yl)ethyl)aminomethyl]dihydrospectinomycintetrahydrobromide] | > 200 µg/mL | > 200 µg/mL | > 200 µg/mL | > 200 µg/mL | > 200 µg/mL | > 200 µg/mL | > 200 µg/mL | > 200 µg/mL | 25 µg/mL | 25 µg/mL | 25 µg/mL | 100 µg/mL | 12.5 µg/mL | – | – | – | – | – | – | – | –
CN[C@@H]1[C@H](O)[C@H](NC)[C@H]2O[C@]3(O)[C@H](O[C@@H]2[C@H]1O)O[C@H](C)C[C@@]3(O)CNCCc1ccc(Cl)cc1 [compound 54, 3′-(R)-3′-[(4-chloro)phenethylaminomethyl]dihydrospectinomycin Trihydrobromide] | 200 µg/mL | 100 to 200 µg/mL | > 200 µg/mL | > 200 µg/mL | > 200 µg/mL | > 200 µg/mL | > 200 µg/mL | 200 µg/mL | 25 µg/mL | 25 µg/mL | 50 µg/mL | 25 µg/mL | 6.3 µg/mL | 25 to 50 µg/mL | 25 µg/mL | 25 µg/mL | 12.5 to 25 µg/mL | > 200 µg/mL | > 200 µg/mL | > 200 µg/mL | MIC [11, 24]: 50 to 100 µg/mL; MIC [15]: ≥ 200 µg/mL; zone of inhibition at 4 µg/disc [16]: 9 mm; zone of inhibition at 4 µg/disc [17]: 15 mm; zone of inhibition at 4 µg/disc [18]: 7 mm; zone of inhibition at 4 µg/disc [19]: 11 mm
CN[C@@H]1[C@H](O)[C@H](NC)[C@H]2O[C@]3(O)[C@H](O[C@@H]2[C@H]1O)O[C@H](C)C[C@@]3(O)CNCCc1ccc(OC(F)(F)F)cc1 [compound 57, 3′-(R)-3′-[(4-trifluoromethoxy)phenethylaminomethyl]dihydrospectinomycin Trihydrochloride] | 25 µg/mL | 25 µg/mL | 50 to 100 µg/mL | ≥ 200 µg/mL | ≥ 200 µg/mL | ≥ 200 µg/mL | > 200 µg/mL | 25 µg/mL | 12.5 µg/mL | 6.3 µg/mL | 25 µg/mL | 6.3 µg/mL | 0.8 µg/mL | – | 3.1 µg/mL | 3.1 to 6.3 µg/mL | 1.3 to 3.1 µg/mL | > 200 µg/mL | 200 µg/mL | 200 µg/mL | MIC ([8]; Bacillus subtilis, ATCC23857, read-out: MIC B.s.): 12.5 µg/mL; MIC ([11]; Escherichia coli, ATCC700926, read-out: MIC E.c.): 25 µg/mL; MIC [15]: 50 to 100 µg/mL; zone of inhibition at 4 µg/disc [16]: 12 mm; zone of inhibition at 4 µg/disc [17]: 22 mm; zone of inhibition at 4 µg/disc [18]: 15 mm; zone of inhibition at 4 µg/disc [19]: 14 mm
CN[C@@H]1[C@H](O)[C@H](NC)[C@H]2O[C@]3(O)[C@H](O[C@@H]2[C@H]1O)O[C@H](C)C[C@@]3(O)CNCCc1cccnc1 [compound 59, 3′-(R)-3′-[((2-(pyridin-3-yl)ethyl)aminomethyl]dihydrospectinomycintetrahydrobromide] | 50 µg/mL | 100 µg/mL | > 200 µg/mL | > 200 µg/mL | > 200 µg/mL | > 200 µg/mL | 100 µg/mL | 50 µg/mL | 6.3 µg/mL | 6.3 µg/mL | 6.3 µg/mL | 12.5 µg/mL | 3.1 µg/mL | 12.5 to 25 µg/mL | – | – | – | – | – | – | –
CN[C@@H]1[C@H](O)[C@H](NC)[C@H]2O[C@]3(O)[C@H](O[C@@H]2[C@H]1O)O[C@H](C)C[C@]3(O)CNCCc1ccccc1 [compound 27, 3′-(S)-3′-(phenethylaminomethyl)dihydrospectinomycin Trihydrochloride] | > 200 µg/mL | > 200 µg/mL | > 200 µg/mL | ≥ 200 µg/mL | 200 µg/mL | > 200 µg/mL | > 200 µg/mL | > 200 µg/mL | 200 µg/mL | – | – | – | – | > 200 µg/mL | > 200 µg/mL | 50 to 100 µg/mL | 25 to 50 µg/mL | > 200 µg/mL | > 200 µg/mL | > 200 µg/mL | MIC [20]: > 200 µg/mL; MIC [11, 24]: 50 to 100 µg/mL; MIC [15]: ≥ 200 µg/mL; zone of inhibition at 4 µg/disc [16]: 0 mm; zone of inhibition at 4 µg/disc [17]: 0 mm; zone of inhibition at 4 µg/disc [18]: 0 mm; zone of inhibition at 4 µg/disc [19]: 7 mm
CN[C@@H]1[C@H](O)[C@H](NC)[C@H]2O[C@]3(O)[C@H](O[C@@H]2[C@H]1O)O[C@H](C)C[C@@]3(O)CNCCc1ccc(C(F)(F)F)cc1 [compound 58, 3′-(R)-3′[(4-trifluoromethyl)phenethylaminomethyl]dihydrospectinomycin Trihydrochloride] | 12.5 to 25 µg/mL | 12.5 µg/mL | 50 to 100 µg/mL | > 200 µg/mL | > 200 µg/mL | > 200 µg/mL | > 200 µg/mL | 12.5 to 25 µg/mL | 3.1 µg/mL | 3.1 µg/mL | 6.3 µg/mL | 3.1 µg/mL | 0.4 µg/mL | 6.3 µg/mL | 1.6 to 3.1 µg/mL | 1.6 to 3.1 µg/mL | 1.6 µg/mL | > 200 µg/mL | 200 µg/mL | 200 µg/mL | MIC [11, 24]: 6.3 to 12.5 µg/mL; zone of inhibition at 4 µg/disc [16]: 19 mm; zone of inhibition at 4 µg/disc [17]: 26 mm; zone of inhibition at 4 µg/disc [18]: 16 mm; zone of inhibition at 4 µg/disc [19]: 19 mm
CN[C@@H]1[C@H](O)[C@H](NC)[C@H]2O[C@]3(O)[C@H](O[C@@H]2[C@H]1O)O[C@H](C)C[C@@]3(O)CNCCc1cnccn1 [compound 60, 3′-(R)-3′-[((2-(pyrazin-2-yl)ethyl)aminomethyl]dihydrospectinomycintetrahydrobromide] | 100 µg/mL | 200 µg/mL | > 200 µg/mL | > 200 µg/mL | > 200 µg/mL | > 200 µg/mL | 100 to 200 µg/mL | 100 µg/mL | 3.1 µg/mL | 6.3 µg/mL | 6.3 µg/mL | 25 µg/mL | 6.3 µg/mL | 50 to 100 µg/mL | 25 µg/mL | 50 µg/mL | 50 µg/mL | > 200 µg/mL | > 200 µg/mL | > 200 µg/mL | MIC [11, 24]: 100 µg/mL; MIC [15]: 25 µg/mL
